From US10995101B2, “2-oxo-thiazole derivatives as A2A inhibitors and compounds for use in the treatment of cancers” (iTeos Therapeutics SA, priority 2017, dated 2021) come the findings set out here.

The target in this experiment is A2A receptor (Homo sapiens, UniProt P29274). Description: Inhibition of cAMP production in HEK cells. It counts as cell-based. The note with it: HEK-293 cells with A2A receptor. The procedure:
When the A2A receptor is activated, is induces the production of cAMP.
HEK-293 cells with a stable transfection of A2A receptor were bought from PerkinElmer® (# ES-011-C). […] Fresh media without the selection marker was added on the day immediately before the experiment to stop selection pressure.
Stimulation buffer b) mimics the human situation by increasing the amount of albumin present in the assay.
Compounds of the present invention were diluted 100× in either of the buffers depending on the assay performed. […] The total volume of the reaction was 20 μl (10 μl of cells, 5 μl of antagonist and 5 μl of agonist). The reaction was finalized by adding 10 μl of 4× EU-cAMP tracer working solution and 10 μl of 4× ULight-anti-cAMP working solution. The TR-FRET signal was measured after 1 hour using a Spectramax Paradigm (Molecular Devices).

Setting [1] is: IC50 (nM) (3 nM NECA as agonist, 0.1% BSA), 3 nM NECA as agonist, 0.1% BSA.
Setting [2] is: IC50 (nM) (5 nM NECA as agonist, 2% HSA), 5 nM NECA as agonist, 2% HSA.
Where [3] appears, read: IC50 (nM) (5 μM Adenosine as agonist, 2.0% HSA), 5 μM Adenosine as agonist, 2.0% HSA.

Chain of A2A receptor (P29274 whole entry): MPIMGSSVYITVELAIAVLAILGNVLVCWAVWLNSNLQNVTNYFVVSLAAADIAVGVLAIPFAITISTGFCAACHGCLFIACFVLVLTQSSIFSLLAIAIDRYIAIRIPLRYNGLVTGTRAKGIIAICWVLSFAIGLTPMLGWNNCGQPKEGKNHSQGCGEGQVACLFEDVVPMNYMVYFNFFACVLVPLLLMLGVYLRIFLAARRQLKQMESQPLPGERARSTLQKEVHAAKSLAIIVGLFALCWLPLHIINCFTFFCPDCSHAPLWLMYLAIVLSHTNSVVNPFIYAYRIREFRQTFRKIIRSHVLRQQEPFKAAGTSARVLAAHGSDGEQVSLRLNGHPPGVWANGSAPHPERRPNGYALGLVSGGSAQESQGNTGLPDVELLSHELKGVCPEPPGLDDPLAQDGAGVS

One may read the IC50 as the concentration needed to halve the response being measured. Read a high IC50 as lower potency. For `C[C@H](Oc1ccc(N2CCN(CCn3c(=O)sc4c3nc(N)n3nc(-c5ccco5)nc43)CC2)c(F)c1)C(=O)O` (single isomer, unassigned) [Compound 38], the IC50 runs as follows: under setting [1], 0.3 nM; under setting [2], 9 nM; under setting [3], 552 nM.

Regarding `C[C@@H](Oc1ccc(N2CCN(CCn3c(=O)sc4c3nc(N)n3nc(-c5ccco5)nc43)CC2)c(F)c1)C(=O)O` (single isomer, unassigned) [Compound 53], the IC50 runs as follows: under setting [2], 4 nM; under setting [3], 127 nM.

In turn, `C[C@H](Oc1cc(N2CCN(CCn3c(=O)sc4c3nc(N)n3nc(-c5ccco5)nc43)CC2)c(F)cc1F)C(=O)O` (single isomer, unassigned) [Compound 60] came in with an IC50 under setting [1] of 0.8 nM, an IC50 under setting [2] of 4 nM and an IC50 under setting [3] of 240 nM.

For the molecule `C[C@@H](Oc1cc(N2CCN(CCn3c(=O)sc4c3nc(N)n3nc(-c5ccco5)nc43)CC2)c(F)cc1F)C(=O)O` (single isomer, unassigned) [Compound 61], the IC50 is, setting by setting: under setting [1], 0.9 nM; under setting [2], 15 nM; under setting [3], 810 nM.

`NC(=O)COc1ccc(N2CCN(CCn3c(=O)sc4c3nc(N)n3nc(-c5ccco5)nc43)CC2)cc1` [Compound 11, 2-(4-(4-(2-(5-amino-8-(furan-2-yl)-2-oxothiazolo[5,4-e][1,2,4]triazolo[1,5-c]pyrimidin-3(2H)-yl)ethyl)piperazin-1-yl)phenoxy)acetamide] showed an IC50 under setting [1] of 2 nM. This counts as single-digit nanomolar.

As to `Nc1nc2c(sc(=O)n2CCN2CCN(c3ccc(OCC(O)CO)cc3)CC2)c2nc(-c3ccco3)nn12` (stereo not drawn) [Compound 12, 5-amino-3-(2-(4-(4-(2,3-dihydroxypropoxy)phenyl)piperazin-1-yl)ethyl)-8-(furan-2-yl)thiazolo[5,4-e][1,2,4]triazolo[1,5-c]pyrimidin-2(3H)-one], the IC50 under setting [1] came to 14.2 nM.

For `NCCOc1ccc(N2CCN(CCn3c(=O)sc4c3nc(N)n3nc(-c5ccco5)nc43)CC2)cc1` [Compound 13, 5-amino-3-(2-(4-(4-(2-aminoethoxy)phenyl)piperazin-1-yl)ethyl)-8-(furan-2-yl)thiazolo[5,4-e][1,2,4]triazolo[1,5-c]pyrimidin-2(3H)-one], the IC50 reads like this: under setting [1], 0.6 nM; under setting [2], 2 nM; under setting [3], 63 nM.

Turning to `NC(=O)c1ccc(N2CCN(CCn3c(=O)sc4c3nc(N)n3nc(-c5ccco5)nc43)CC2)cc1` [Compound 14, 4-(4-(2-(5-amino-8-(furan-2-yl)-2-oxothiazolo[5,4-e][1,2,4]triazolo[1,5-c]pyrimidin-3(2H)-yl)ethyl)piperazin-1-yl)benzamide], the IC50 runs as follows: under setting [1], 0.7 nM; under setting [2], 11 nM; under setting [3], 567 nM.

Take `CNC(=O)c1ccc(N2CCN(CCn3c(=O)sc4c3nc(N)n3nc(-c5ccco5)nc43)CC2)cc1` [Compound 15, 4-(4-(2-(5-amino-8-(furan-2-yl)-2-oxothiazolo[5,4-e][1,2,4]triazolo[1,5-c]pyrimidin-3(2H)-yl)ethyl)piperazin-1-yl)-N-methylbenzamide]: the IC50 under setting [1] was determined as 2.6 nM.

In the case of `Nc1nc2c(sc(=O)n2CCN2CCN(c3ccc(OCCN4CCOCC4)cc3)CC2)c2nc(-c3ccco3)nn12` [Compound 16, 5-amino-8-(furan-2-yl)-3-(2-(4-(4-(2-morpholinoethoxy)phenyl)piperazin-1-yl)ethyl)thiazolo[5,4-e][1,2,4]triazolo[1,5-c]pyrimidin-2(3H)-one], the IC50 was 3.2 nM under setting [1] and 14 nM under setting [2].

`CN(C)CCOc1ccc(N2CCN(CCn3c(=O)sc4c3nc(N)n3nc(-c5ccco5)nc43)CC2)cc1` [Compound 17, 5-amino-3-(2-(4-(4-(2-(dimethylamino)ethoxy)phenyl)piperazin-1-yl)ethyl)-8-(furan-2-yl)thiazolo[5,4-e][1,2,4]triazolo[1,5-c]pyrimidin-2(3H)-one]: the IC50 under setting [1] worked out at 1 nM.

In the case of `Nc1nc2c(sc(=O)n2CCN2CCN(c3ccc(S(N)(=O)=O)cc3)CC2)c2nc(-c3ccco3)nn12` [Compound 18, 4-(4-(2-(5-amino-8-(furan-2-yl)-2-oxothiazolo[5,4-e][1,2,4]triazolo[1,5-c]pyrimidin-3(2H)-yl)ethyl)piperazin-1-yl)benzenesulfonamide], the IC50 is, setting by setting: under setting [1], 1.7 nM; under setting [2], 85 nM; under setting [3], 2170 nM.

In the case of `CNS(=O)(=O)c1ccc(N2CCN(CCn3c(=O)sc4c3nc(N)n3nc(-c5ccco5)nc43)CC2)cc1` [Compound 19, 4-(4-(2-(5-amino-8-(furan-2-yl)-2-oxothiazolo[5,4-e][1,2,4]triazolo[1,5-c]pyrimidin-3(2H)-yl)ethyl)piperazin-1-yl)-N-methylbenzenesulfonamide], the IC50 under setting [1] turned out to be 2.6 nM.

`CS(=O)(=O)c1ccc(N2CCN(CCn3c(=O)sc4c3nc(N)n3nc(-c5ccco5)nc43)CC2)cc1` [Compound 20, 5-amino-8-(furan-2-yl)-3-(2-(4-(4-(methylsulfonyl)phenyl)piperazin-1-yl)ethyl)thiazolo[5,4-e][1,2,4]triazolo[1,5-c]pyrimidin-2(3H)-one]: the half-maximal inhibitory concentration (IC50) by setting is: under setting [1], 1.9 nM; under setting [2], 352 nM.

Take `C[S+]([O-])c1ccc(N2CCN(CCn3c(=O)sc4c3nc(N)n3nc(-c5ccco5)nc43)CC2)cc1` (stereo not drawn) [Compound 21, 5-amino-8-(furan-2-yl)-3-(2-(4-(4-(methylsulfinyl)phenyl)piperazin-1-yl)ethyl)thiazolo[5,4-e][1,2,4]triazolo[1,5-c]pyrimidin-2(3H)-one]: the IC50 is, setting by setting: under setting [1], 1.6 nM; under setting [2], 52 nM; under setting [3], 1310 nM.

Take `NC(=O)c1cccc(N2CCN(CCn3c(=O)sc4c3nc(N)n3nc(-c5ccco5)nc43)CC2)c1` [Compound 22, 3-(4-(2-(5-amino-8-(furan-2-yl)-2-oxothiazolo[5,4-e][1,2,4]triazolo[1,5-c]pyrimidin-3(2H)-yl)ethyl)piperazin-1-yl)benzamide]: the IC50 reads like this: under setting [1], 1.4 nM; under setting [2], 6 nM; under setting [3], 352 nM.

As for `Nc1nc2c(sc(=O)n2CCN2CCN(c3cccc(OCCO)c3)CC2)c2nc(-c3ccco3)nn12` [Compound 23, 5-amino-8-(furan-2-yl)-3-(2-(4-(3-(2-hydroxyethoxy)phenyl)piperazin-1-yl)ethyl)thiazolo[5,4-e][1,2,4]triazolo[1,5-c]pyrimidin-2(3H)-one], under setting [1], the IC50 stood at 0.6 nM.

Consider `Nc1nc2c(sc(=O)n2CCN2CCN(c3ccc(S(=O)(=O)N4CCNCC4)cc3F)CC2)c2nc(-c3ccco3)nn12` [Compound 28, 5-amino-3-(2-(4-(2-fluoro-4-(piperazin-1-ylsulfonyl)phenyl)piperazin-1-yl)ethyl)-8-(furan-2-yl)thiazolo[5,4-e][1,2,4]triazolo[1,5-c]pyrimidin-2(3H)-one], for which the IC50 reads like this: under setting [1], 0.2 nM; under setting [2], 4 nM; under setting [3], 115 nM.

Regarding `CS(=O)(=O)c1ccc(N2CCN(CCn3c(=O)sc4c3nc(N)n3nc(-c5ccco5)nc43)CC2)c(F)c1` [Compound 29, 5-amino-3-(2-(4-(2-fluoro-4-(methylsulfonyl)phenyl)piperazin-1-yl)ethyl)-8-(furan-2-yl)thiazolo[5,4-e][1,2,4]triazolo[1,5-c]pyrimidin-2(3H)-one], the IC50 runs as follows: under setting [1], 0.4 nM; under setting [2], 11 nM; under setting [3], 350 nM.

`Nc1nc2c(sc(=O)n2CCN2CCN(c3c(F)cc(OCC(=O)O)cc3F)CC2)c2nc(-c3ccco3)nn12` [Compound 36, 2-(4-(4-(2-(5-amino-8-(furan-2-yl)-2-oxothiazolo[5,4-e][1,2,4]triazolo[1,5-c]pyrimidin-3(2H)-yl)ethyl)piperazin-1-yl)-3,5-difluorophenoxy)acetic acid]: the IC50 under setting [1] came out at 0.7 nM, the IC50 under setting [2] was 8 nM and the IC50 under setting [3] was found to be 260 nM.

With `CC(Oc1ccc(N2CCN(CCn3c(=O)sc4c3nc(N)n3nc(-c5ccco5)nc43)CC2)c(F)c1)C(=O)O` (stereo not drawn) [Compound 37, 2-(4-(4-(2-(5-amino-8-(furan-2-yl)-2-oxothiazolo[5,4-e][1,2,4]triazolo[1,5-c]pyrimidin-3(2H)-yl)ethyl)piperazin-1-yl)-3-fluorophenoxy)propanoic acid], the IC50 is, setting by setting: under setting [1], 0.8 nM; under setting [2], 9 nM; under setting [3], 398 nM.

As for `Nc1nc2c(sc(=O)n2CCN2CCN(c3ccc(OCCCC(=O)O)cc3F)CC2)c2nc(-c3ccco3)nn12` [Compound 41, 4-(4-(4-(2-(5-amino-8-(furan-2-yl)-2-oxothiazolo[5,4-e][1,2,4]triazolo[1,5-c]pyrimidin-3(2H)-yl)ethyl)piperazin-1-yl)-3-fluorophenoxy)butanoic acid], the IC50 runs as follows: under setting [1], 0.8 nM; under setting [2], 14 nM; under setting [3], 423 nM.

On to `Nc1nc2c(sc(=O)n2CCN2CCN(c3ccc(F)c(OCC(=O)O)c3F)CC2)c2nc(-c3ccco3)nn12` [Compound 42, 2-(3-(4-(2-(5-amino-8-(furan-2-yl)-2-oxothiazolo[5,4-e][1,2,4]triazolo[1,5-c]pyrimidin-3(2H)-yl)ethyl)piperazin-1-yl)-2,6-difluorophenoxy)acetic acid], for which the IC50 runs as follows: under setting [1], 0.4 nM; under setting [2], 19 nM; under setting [3], 332 nM.
